Values quoted from earlier work in patent publication US20220125818A1, “COMPOSITIONS AND METHODS FOR TREATMENT OF A CORONAVIRUS DISEASE (COVID-19) INFECTION” (priority 2020, published 2022).

Biological target: T1, COX-1 (Homo sapiens, UniProt P23219)
T1 construct: endogenous in cells; host or cells: platelets (in vivo)
Conditions: average platelet lifespan

T1 sequence (P23219 24-599): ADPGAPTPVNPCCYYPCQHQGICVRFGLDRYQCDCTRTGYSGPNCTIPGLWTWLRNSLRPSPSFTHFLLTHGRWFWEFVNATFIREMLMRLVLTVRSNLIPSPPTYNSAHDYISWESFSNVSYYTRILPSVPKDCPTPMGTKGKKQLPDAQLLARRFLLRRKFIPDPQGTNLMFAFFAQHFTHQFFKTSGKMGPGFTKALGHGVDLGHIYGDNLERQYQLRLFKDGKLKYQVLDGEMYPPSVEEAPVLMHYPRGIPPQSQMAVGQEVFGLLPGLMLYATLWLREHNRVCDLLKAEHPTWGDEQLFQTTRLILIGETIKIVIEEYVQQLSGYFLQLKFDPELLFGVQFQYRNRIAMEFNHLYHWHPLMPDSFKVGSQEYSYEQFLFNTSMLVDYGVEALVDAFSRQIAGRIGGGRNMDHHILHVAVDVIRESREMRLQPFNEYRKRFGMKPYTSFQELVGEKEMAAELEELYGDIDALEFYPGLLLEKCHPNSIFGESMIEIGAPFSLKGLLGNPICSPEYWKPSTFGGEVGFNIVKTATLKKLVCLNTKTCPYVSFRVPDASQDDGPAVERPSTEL

CC(=O)Oc1ccccc1C(=O)O [Aspirin®, Acetylsalicylic acid]
duration of inhibition of platelet aggregation: 7 to 10 days
